# In ChEMBL document CHEMBL1128027, “Total synthesis of a novel benz[A]anthracycline analog of the antitumor agent 4-demethoxydaunorubicin” (Bioorg Med Chem Lett, 1994):
# Tested on: CCRF-CEM
# Experiment: Cytotoxicity tested in vitro against T-lymphoid leukemic cell line
# Format: functional, cell-based
# Conditions: Homo sapiens
row,SMILES,IC50
1,CC(=O)[C@@]1(O)Cc2c3c(c(O)c(O)c2[C@H](OC2CC(N)C(O)C(C)O2)C1)C(=O)c1ccccc1C3=O (stereo partly drawn),1000 nM
2,CC(=O)[C@]1(O)Cc2c3c(c(O)c(O)c2[C@@H](OC2CC(N)C(O)C(C)O2)C1)C(=O)c1ccccc1C3=O (stereo partly drawn),1000 nM
3,COc1cccc2c1C(=O)c1c(O)c3c(c(O)c1C2=O)C[C@@](O)(C(=O)CO)C[C@@H]3O[C@H]1C[C@H](N)[C@H](O)[C@H](C)O1 [DOXORUBICIN],20 nM
